The term pIC50 denotes −log10 of the IC50, conventionally taken in molar units.

The target in this test is URAT1 (Homo sapiens (Human), UniProt Q96S37). Nature of the test: Uptake of [14C] uric acid using HEK-URAT1. Type of test: cell-based. The following applies: for remaining activity at 10 µM: 2 min, [14C] uric acid uptake into URAT1 stably expressed HEK293 cells, 10 μM test compound, 5 μM uric acid, 2 minutes, 37° C., uptake without test compound = 100%, read-out: % control (10 μM); for pIC50: inhibition of [14C] uric acid uptake into URAT1 stably expressed HEK293 cells. The method, then:
More specifically, the test is performed by culturing URAT1 stably expressed HEK293 cells (HEK-URAT1) or HEK293 cells transfected with empty vector (HEK-mock) in a DMEM culture medium in an incubator. Subsequently, 1×10^5 cells are respectively seeded in 24-well culture plate coated with poly D-lysine and the uptake test is started after the culturing.
The cells are washed with a solution for a test warmed to 37° C. and equilibrated. After a buffer solution is removed from the cells, 0.5 mL of an uptake solution containing 5 μM [^14C] uric acid with or without a test compound is respectively added and the cells are incubated. The cell uptake is stopped by adding a Hanks buffer solution and the cells are washed. The cells are lysed with 0.1 N sodium hydroxide and the radioactivity is measured using LSC6100 (Aloka Co., Ltd. Tokyo). Each uptake into HEK-URAT1 is acquired by subtracting uptake into HEK-mock cells from the value of HEK-URAT1, converting the result to per mg protein of cells, and setting the values from the uptake without the test compound as 100%.
URAT1 stably expressed HEK293 cells (HEK-URAT1) or HEK293 cells transfected with empty vector (HEK-mock) were cultured in DMEM culture medium supplemented with 10% fetal bovine serum in an incubator under conditions of 5% carbon dioxide at 37° C. Subsequently, 1×10^5 cells were respectively seeded in 24-well culture plate coated with poly D-lysine and the uptake test was started after the culturing for 3 days.
The uptake experiment of uric acid was performed at 37° C. […] After a buffer solution was removed from the cells, 0.5 mL of an uptake solution containing 5 μM [^14C] uric acid with or without a test compound was respectively added and the cells were incubated for 2 minutes. The cell uptake was stopped by adding an ice-cold Hanks buffer solution without chloride ions and the cells were washed 3 times. The cells were lysed with 0.1 N sodium hydroxide and the radioactivity was measured using LSC6100 (Aloka Co., Ltd. Tokyo). Each uptake into HEK-URAT1 was acquired by subtracting uptake into HEK-mock cells from the value of HEK-URAT1, converting the result to per mg protein of cells, and setting the value from uptake without the test compound as 100%. The uptake in each condition was performed in triplicate and each value was represented by average±standard deviation.
The URAT1 inhibitory action was measured according to the same method as in Example 118.

Structures are written as SMILES. pIC50: −log10 of the molar value.

Chain of URAT1 (Q96S37 whole entry): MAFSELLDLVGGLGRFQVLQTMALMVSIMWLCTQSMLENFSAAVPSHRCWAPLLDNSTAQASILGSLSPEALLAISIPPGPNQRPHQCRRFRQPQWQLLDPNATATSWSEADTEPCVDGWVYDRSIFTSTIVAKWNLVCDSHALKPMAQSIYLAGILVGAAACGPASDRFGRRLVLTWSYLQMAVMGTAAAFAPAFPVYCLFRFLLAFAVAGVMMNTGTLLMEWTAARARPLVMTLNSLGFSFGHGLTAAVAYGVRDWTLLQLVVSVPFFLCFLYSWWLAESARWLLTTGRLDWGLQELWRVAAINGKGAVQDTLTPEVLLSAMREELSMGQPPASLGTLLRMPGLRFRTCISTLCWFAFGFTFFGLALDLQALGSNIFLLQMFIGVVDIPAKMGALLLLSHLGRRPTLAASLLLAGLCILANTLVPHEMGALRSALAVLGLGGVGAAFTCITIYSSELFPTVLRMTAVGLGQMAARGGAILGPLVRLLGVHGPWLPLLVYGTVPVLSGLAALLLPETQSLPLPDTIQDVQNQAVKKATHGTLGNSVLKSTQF

Regarding `CC(C)(Oc1ccc2ccccc2c1-c1ccc(C#N)c2ccccc12)C(=O)O` [Example 2, 2-[(4′-Cyano-(1,1′-binaphthalene)-2-yl]oxy]-2-methylpropanoic acid], the remaining activity at 10 µM was 45.4% and the negative logarithm of the IC50 (pIC50) is 5.69.
For `CC(C)(Sc1ccc2ccccc2c1-c1ccc(C#N)c2ccccc12)C(=O)O` [Example 4, 2-[(4′-Cyano[1,1′-binaphthalene]-2-yl)thio]-2-methylpropanoic acid], in that order: 15.1% and 6.10.
As to `N#Cc1ccc(-c2c(O/C=C/C(=O)O)ccc3ccccc23)cc1` [Example 6, (E)-3-[[1-(4-Cyanophenyl)naphthalen-2-yl]oxy]acrylic acid], the remaining activity at 10 µM worked out at 5.4%.
The same measure, in the same setting: under `N#Cc1ccc(-c2c(O/C=C\C(=O)O)ccc3ccccc23)cc1` [Example 7, (Z)-3-[[1-(4-Cyanophenyl)naphthalen-2-yl]oxy]acrylic acid] stands 29.5%; under `CC(C)(Oc1ccc2ccccc2c1-c1cccnc1)C(=O)O` [Example 8, 2-Methyl-2-[[1-(pyridin-3-yl)naphthalen-2-yl]oxy]propanoic acid], 61.3%; under `O=C(O)/C=C/Oc1ccc2ccccc2c1-c1cccnc1` [Example 10, (E)-3-[[1-(Pyridin-3-yl)naphthalen-2-yl]oxy]acrylic acid], 27.1%.
Regarding `CC(C)(Sc1ccc2ncccc2c1-c1ccc(C#N)cc1)C(=O)O` [Example 15, 2-[[5-(4-Cyanophenyl)quinolin-6-yl]thio]-2-methylpropanoic acid], the remaining activity at 10 µM came out at 50.1% and the negative logarithm of the IC50 (pIC50) was 5.46.
As to `CC(C)(Oc1ccc2ncoc2c1-c1ccc(C#N)cc1)C(=O)O` [Example 17, 2-[[7-(4-Cyanophenyl)benzo[d]oxazol-6-yl]oxy]-2-methylpropanoic acid], the remaining activity at 10 µM was found to be 59.3%.
The same measure, in the same setting: next, `CC(C)(Oc1ccc2ncsc2c1-c1ccc(C#N)cc1)C(=O)O` [Example 19, 2-[[7-(4-Cyanophenyl)benzo[d]thiazol-6-yl]oxy]-2-methylpropanoic acid]: 15.6%.
`N#Cc1ccc(-c2c(O/C=C/C(=O)O)ccc3ncsc23)cc1` [Example 21, (E)-3-[[7-(4-cyanophenyl)benzo[d]thiazol-6-yl]oxy]acrylic acid]: the remaining activity at 10 µM turned out to be 48.7%.
In the case of `CC(C)(Sc1ccc2ncsc2c1-c1ccc(C#N)cc1)C(=O)O` [Example 24, 2-[[7-(4-Cyanophenyl)benzo[d]thiazol-6-yl]thio]-2-methylpropanoic acid], the remaining activity at 10 µM amounted to 7.4% and the negative-log IC50 (pIC50) is 6.77.
Consider `CC(C)(Oc1ccc2cnsc2c1-c1ccc(C#N)cc1)C(=O)O` [Example 26, 2-[[7-(4-Cyanophenyl)benzo[d]isothiazol-6-yl]oxy]-2-methylpropanoic acid], for which the remaining activity at 10 µM turned out to be 11.6%.
The same measure, in the same setting: next, `CC(C)(Sc1ccc2cnsc2c1-c1ccc(C#N)cc1)C(=O)O` [Example 28, 2-[[7-(4-Cyanophenyl)benzo[d]isothiazol-6-yl]thio]-2-methylpropanoic acid]: 0.1%; `CC(C)(Oc1c(-c2ccc(C#N)cc2)ccc2ncsc12)C(=O)O` [Example 37, 2-[[6-(4-Cyanophenyl)benzo[d]thiazol-7-yl]oxy]-2-methylpropanoic acid]: 78.6%.
With `CC(C)(Sc1c(-c2ccc(C#N)cc2)cnc2ccccc12)C(=O)O` [Example 45, 2-[[3-(4-Cyanophenyl)quinolin-4-yl]thio]-2-methylpropanoic acid], the remaining activity at 10 µM turned out to be 36.5% and the pIC50 was 5.80.
Consider `CC(C)(Sc1ccc2nc(C(F)(F)F)sc2c1-c1ccc(C#N)cc1)C(=O)O` [Example 60, 2-[[7-(4-Cyanophenyl)-2-(trifluoromethyl)benzo[d]thiazol-6-yl]thio]-2-methylpropanoic acid], for which the remaining activity at 10 µM worked out at 69.2%.
On the same count and under the same terms, next, `Cc1nc2ccc(SC(C)(C)C(=O)O)c(-c3ccc(C#N)cc3)c2s1` [Example 62, 2-[[7-(4-Cyanophenyl)-2-methylbenzo[d]thiazol-6-yl]thio]-2-methylpropanoic acid]: 49%; `CC(C)(Sc1ccc2ncsc2c1-c1ccc(OC(F)(F)F)cc1)C(=O)O` [Example 64, 2-Methyl-2-[[7-[4-(trifluoromethoxy)phenyl]benzo[d]thiazol-6-yl]thio]propanoic acid]: 30.1%.
Regarding `N#Cc1ccc(-c2c(SC3(C(=O)O)CCC3)ccc3cnsc23)cc1` [Example 66, 1-[[7-(4-Cyanophenyl)benzo[d]isothiazol-6-yl]thio]cyclobutan-1-carboxylic acid], the remaining activity at 10 µM was found to be 1.8% and the pIC50 was 7.67.
For `N#Cc1ccc(-c2c(SC3(C(=O)O)CCCC3)ccc3cnsc23)cc1` [Example 68, 1-[[7-(4-Cyanophenyl)benzo[d]isothiazol-6-yl]thio]cyclopentan-1-carboxylic acid], in that order: below 0.1% and 7.58.
With `CC(C)C(Sc1ccc2cnsc2c1-c1ccc(C#N)cc1)C(=O)O` (centres unmarked) [Example 70, 2-[[7-(4-Cyanophenyl)benzo[d]isothiazol-6-yl]thio]-3-methylbutanoic acid], the remaining activity at 10 µM turned out to be 6.4%.
`CC(C)(Sc1ccc2cnsc2c1-c1ccc([N+](=O)[O-])cc1)C(=O)O` [Example 72, 2-Methyl-2-[[7-(4-nitrophenyl)benzo[d]isothiazol-6-yl]thio]propanoic acid]: the remaining activity at 10 µM was below 0.1% and the pIC50 was 7.92.
For the compound `Cc1ccc(-c2c(SC(C)(C)C(=O)O)ccc3cnsc23)cc1` [Example 74, 2-Methyl-2-[[7-(p-tolyl)benzo[d]isothiazol-6-yl]thio]propanoic acid], the remaining activity at 10 µM stood at 6.8%.
On the same count and under the same terms, next, `CC(C)c1ccc(-c2c(SC(C)(C)C(=O)O)ccc3cnsc23)cc1` [Example 76, 2-[[7-(4-Isopropylphenyl)benzo[d]isothiazol-6-yl]thio]-2-methylpropanoic acid]: 12.7%.
For the compound `CC(C)(Sc1ccc2cnsc2c1-c1ccc(C(F)(F)F)cc1)C(=O)O` [Example 78, 2-Methyl-2-[[7-[4-(trifluoromethyl)phenyl]benzo[d]isothiazol-6-yl]thio]propanoic acid], the remaining activity at 10 µM came to 3.2% and the pIC50 is 6.98.
Regarding `CC(C)(Sc1ccc2cnsc2c1-c1ccc(OC(F)(F)F)cc1)C(=O)O` [Example 80, 2-Methyl-2-[[7-[4-(trifluoromethoxy)phenyl]benzo[d]isothiazol-6-yl]thio]propanoic acid], the remaining activity at 10 µM was found to be 29.2%.
Regarding `CC(C)(Sc1ccc2cnsc2c1-c1ccc(Cl)cc1)C(=O)O` [Example 82, 2-[[7-(4-Chlorophenyl)benzo[d]isothiazol-6-yl]thio]-2-methylpropanoic acid], the remaining activity at 10 µM is below 0.1% and the pIC50 is 6.97.
As to `CC(C)(Sc1ccc2cnsc2c1-c1cccc(C#N)c1)C(=O)O` [Example 84, 2-[[7-(3-Cyanophenyl)benzo[d]isothiazol-6-yl]thio]-2-methylpropanoic acid], the remaining activity at 10 µM was found to be 2.3% and the negative logarithm of the IC50 (pIC50) was 6.69.
As for `Cc1cc(C#N)ccc1-c1c(SC(C)(C)C(=O)O)ccc2cnsc12` [Example 86, 2-[[7-(4-Cyano-2-methylphenyl)benzo[d]isothiazol-6-yl]thio]-2-methylpropanoic acid], the remaining activity at 10 µM came to 12.1%.
Same read-out and setting: next, `Cc1cc(-c2c(SC(C)(C)C(=O)O)ccc3cnsc23)ccc1C#N` [Example 88, 2-[[7-(4-Cyano-3-methylphenyl)benzo[d]isothiazol-6-yl]thio]-2-methylpropanoic acid]: 3.8%.
As to `CC(C)(Sc1ccc2cnsc2c1-c1ccc(C#N)c(F)c1)C(=O)O` [Example 90, 2-[[7-(4-Cyano-3-fluorophenyl)benzo[d]isothiazol-6-yl]thio]-2-methylpropanoic acid], the remaining activity at 10 µM came out at 3.6% and the negative logarithm of the IC50 (pIC50) is 6.79.
For `Cc1nsc2c(-c3ccc(C#N)cc3)c(SC3(C(=O)O)CCC3)ccc12` [Example 112, 1-[[7-(4-Cyanophenyl)-3-methylbenzo[d]isothiazol-6-yl]thio]cyclobutan-1-carb oxylic acid], in that order: 13.8% and 5.61.
For `CCC(CC)(Sc1ccc2cnsc2c1-c1ccc(C#N)cc1)C(=O)O` [Example 113, 2-[[7-(4-Cyanophenyl)benzo[d]isothiazol-6-yl]thio]-2-ethylbutanoic acid], in that order: below 0.1% and 7.68.
